Laboratory results from ChEMBL document CHEMBL1201862, “PubChem BioAssay data set” (2004).
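Cells were grown in 96-well plates and exposed to each compound for 48 hours at five concentrations; endpoints were interpolated linearly between bracketing concentrations, or set to the highest concentration if not reached. Here, GI50 denotes the concentration required for 50% inhibition of growth.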 The source made the active and inactive calls. Rule as the data show it: active = GI50 up to about 1.1 µM and inactive = higher.

Legend:
Assay in all cases: NCI anticancer screen, dose series, 48 h
HCT-15 = test system: HCT-15
HT-29 = test system: HT-29
NCI-H23 = test system: NCI-H23
SF-295 = test system: SF-295
IGROV-1 = test system: IGROV-1
SK-MEL-2 = test system: SK-MEL-2
HCT-116 = test system: HCT-116
MDA-MB-435 = test system: MDA-MB-435
SK-MEL-5 = test system: SK-MEL-5
MDA-MB-231 = test system: MDA-MB-231
SNB-19 = test system: SNB-19
SK-MEL-28 = test system: SK-MEL-28
K562 = test system: K562
NCI-H522 = test system: NCI-H522
PC-3 = test system: PC-3
OVCAR-8 = test system: OVCAR-8
Malme-3M = test system: Malme-3M
RPMI-8226 = test system: RPMI-8226
U-251 = test system: U-251
MOLT-4 = test system: MOLT-4

Row | Structure (SMILES) | GI50 (HCT-15) [µM] | GI50 (HT-29) | GI50 (NCI-H23) | GI50 (SF-295) | GI50 (IGROV-1) | GI50 (SK-MEL-2) | GI50 (HCT-116) | GI50 (MDA-MB-435) | GI50 (SK-MEL-5) | GI50 (MDA-MB-231) | GI50 (SNB-19) | GI50 (SK-MEL-28) | GI50 (K562) | GI50 (NCI-H522) | GI50 (PC-3) | GI50 (OVCAR-8) | GI50 (Malme-3M) | GI50 (RPMI-8226) | GI50 (U-251) | GI50 (MOLT-4)
1 | CC(C)(C)C(=O)CC1=Nc2ccccc2SC1(O)CC(=O)C(C)(C)C (stereo not given) | 15.3 | 17.1 µM (inactive) | 24.1 µM (inactive) | 24.8 µM (inactive) | 16 µM (inactive) | 13.7 µM (inactive) | 24 µM (inactive) | 22.6 µM (inactive) | 18.9 µM (inactive) | 17.8 µM (inactive) | 35.6 µM (inactive) | 22.8 µM (inactive) | 21.5 µM (inactive) | 13 µM (inactive) | 22.5 µM (inactive) | 21.9 µM (inactive) | 33.3 µM (inactive) | 8.67 µM (inactive) | 22.2 µM (inactive) | 3.48 µM (inactive)
2 | CCC1=NC(N/N=C/c2ccco2)=N/C1=C\c1ccco1 | > 100 | > 100 µM (inactive) | > 100 µM (inactive) | > 100 µM (inactive) | > 100 µM (inactive) | > 100 µM (inactive) | > 100 µM (inactive) | 52 µM (inactive) | > 100 µM (inactive) | > 100 µM (inactive) | > 100 µM (inactive) | > 100 µM (inactive) | 62.1 µM (inactive) | > 100 µM (inactive) | > 100 µM (inactive) | > 100 µM (inactive) | > 100 µM (inactive) | 40.9 µM (inactive) | > 100 µM (inactive) | > 100 µM (inactive)
3 | NC1(P(=O)(O)O)CCCCC1 | > 100 | > 100 µM (inactive) | > 100 µM (inactive) | > 100 µM (inactive) | > 100 µM (inactive) | > 100 µM (inactive) | > 100 µM (inactive) | > 100 µM (inactive) | > 100 µM (inactive) | > 100 µM (inactive) | > 100 µM (inactive) | > 100 µM (inactive) | > 100 µM (inactive) | > 100 µM (inactive) | > 100 µM (inactive) | > 100 µM (inactive) | > 100 µM (inactive) | > 100 µM (inactive) | > 100 µM (inactive) | > 100 µM (inactive)
4 | C1=CC2C(C3CN(c4ccccc4)N=C13)C1C3C4C=CC21C=CC43 (stereo not given) | > 100 | > 100 µM (inactive) | > 100 µM (inactive) | > 100 µM (inactive) | > 100 µM (inactive) | > 100 µM (inactive) | > 100 µM (inactive) | > 100 µM (inactive) | > 100 µM (inactive) | > 100 µM (inactive) | > 100 µM (inactive) | > 100 µM (inactive) | > 100 µM (inactive) | 97.5 µM (inactive) | > 100 µM (inactive) | > 95.3 µM (inactive) | 57.5 µM (inactive) | > 100 µM (inactive) | > 100 µM (inactive) | > 100 µM (inactive)
5 | CCOC(=O)C(C#N)C1=CC(=O)C(=O)c2ccc(OC)cc21 (stereo not given) | 23.8 | 31.6 µM (inactive) | 15.5 µM (inactive) | 23.3 µM (inactive) | 19.9 µM (inactive) | 12.8 µM (inactive) | 20.7 µM (inactive) | 17.6 µM (inactive) | 15.2 µM (inactive) | 14.6 µM (inactive) | 22.1 µM (inactive) | 21.3 µM (inactive) | 36.6 µM (inactive) | 3.89 µM (inactive) | 28.5 µM (inactive) | 20 µM (inactive) | 16.9 µM (inactive) | > 100 µM (inactive) | 29.2 µM (inactive) | 48.5 µM (inactive)
6 | CC(=O)NC(=O)/N=C1\NCCC(=O)N1CCc1c[nH]c2ccccc12 | > 100 | > 100 µM (inactive) | > 100 µM (inactive) | > 100 µM (inactive) | > 100 µM (inactive) | > 100 µM (inactive) | > 100 µM (inactive) | > 100 µM (inactive) | > 100 µM (inactive) | > 100 µM (inactive) | > 100 µM (inactive) | > 100 µM (inactive) | > 100 µM (inactive) | > 100 µM (inactive) | > 100 µM (inactive) | > 100 µM (inactive) | > 100 µM (inactive) | > 100 µM (inactive) | > 100 µM (inactive) | > 100 µM (inactive)
7 | Cc1c(F)c(N)c2c(=O)cc(-c3ccc(NC(=O)CN(C)C)c(F)c3)oc2c1F | 61.8 | 33.6 µM (inactive) | > 100 µM (inactive) | 68.1 µM (inactive) | 38 µM (inactive) | 60.7 µM (inactive) | > 100 µM (inactive) | 48.2 µM (inactive) | 53.5 µM (inactive) | 27.8 µM (inactive) | 54.1 µM (inactive) | 47.9 µM (inactive) | 26.7 µM (inactive) | 55.1 µM (inactive) | 38.3 µM (inactive) | 38.5 µM (inactive) | > 100 µM (inactive) | 23.7 µM (inactive) | 24.8 µM (inactive) | 15.5 µM (inactive)
8 | COc1ccc(C2c3cc4c(cc3OC(NNC(N)=O)C2C)OCO4)cc1 (stereo not given) | 3.94 | 3.3 µM (inactive) | 14.6 µM (inactive) | 3.58 µM (inactive) | 6.59 µM (inactive) | 10.8 µM (inactive) | 4.7 µM (inactive) | 2.14 µM (inactive) | 6.85 µM (inactive) | 11.7 µM (inactive) | 13.7 µM (inactive) | 7.23 µM (inactive) | 2.86 µM (inactive) | 3.45 µM (inactive) | 4.69 µM (inactive) | 6.67 µM (inactive) | 6.67 µM (inactive) | 3.3 µM (inactive) | 4.95 µM (inactive) | 3.94 µM (inactive)
9 | O=C1c2sccc2C(=O)c2c(CO)csc21 | 2.49 | 3.3 µM (inactive) | 2.07 µM (inactive) | 2.69 µM (inactive) | 4.03 µM (inactive) | 2.85 µM (inactive) | 3.04 µM (inactive) | 1.94 µM (inactive) | 0.83 µM (active) | 17.2 µM (inactive) | 5.56 µM (inactive) | 7.8 µM (inactive) | 7.01 µM (inactive) | 1.92 µM (inactive) | 3.32 µM (inactive) | 3.66 µM (inactive) | 1.91 µM (inactive) | 5.26 µM (inactive) | 6.03 µM (inactive) | 4.89 µM (inactive)
10 | CCOC(=O)C1(Cc2ccccc2)C=CN(C(=O)c2ccccc2)C=C1 | 32.1 | 34.2 µM (inactive) | 30.1 µM (inactive) | 36 µM (inactive) | 61.5 µM (inactive) | 18.1 µM (inactive) | 29.8 µM (inactive) | 29.2 µM (inactive) | 15.1 µM (inactive) | 37 µM (inactive) | 46.5 µM (inactive) | 30.8 µM (inactive) | 27 µM (inactive) | 24.5 µM (inactive) | 25.4 µM (inactive) | 34.4 µM (inactive) | 26.6 µM (inactive) | 18 µM (inactive) | 29.2 µM (inactive) | 20.6 µM (inactive)
11 | O=S(=O)(CCCCl)SCCCCl | 23.3 | 25.9 µM (inactive) | 45.1 µM (inactive) | > 64.9 µM (inactive) | 37.5 µM (inactive) | 44.8 µM (inactive) | 20.9 µM (inactive) | 25.8 µM (inactive) | 30.7 µM (inactive) | 29.9 µM (inactive) | > 95.1 µM (inactive) | 39.3 µM (inactive) | 7.5 µM (inactive) | 17.1 µM (inactive) | 30.1 µM (inactive) | 13.3 µM (inactive) | 33.6 µM (inactive) | 21.9 µM (inactive) | 45.9 µM (inactive) | 3.17 µM (inactive)
